Data as given in EP0219377A1, “Process for the preparation of spherical paracetamol agglomerates and products obtained thereby” (RHONE-POULENC SANTE, priority 1985, dated 1987).

Legend:
[1] = flowability (coulabilité) test on the Hosokawa combined powder tester; assay type: physicochemical; settings: for Angle de spatule / Angle de talus / Densité (non tassée): combiné Hosokawa
From the text: Les propriétés de coulabilité et de dissolution du produit ainsi obtenu sont comparées à celle de paracétamol cristallisé paracétamol broyé (refus à 425 µ < 0,5 %, refus à 250 µ < 5 %) paracétamol broyé super fin (refus à 50 µ < 10 %, refus à 80 µ < 1 %) a) coulabilité : les produits sont testés sur le combiné Hosokawa commercialisé par Hosokawa Europe Ltd, St John's Estate, Tylers Green High Wycombe, Buckinghamshire, England.

[2] = dissolution of suspensions of 1, 2 and 3 g in 200 cm3 of water, stirred at room temperature; assay type: physicochemical; settings: insoluble filtered, dried and weighed after at most 10 minutes
From the text: Les résultats suivants sont obtenus :

[3] = Concentration 5 g/l (1 g in 200 cm3 water)
[4] = Concentration 10 g/l (2 g in 200 cm3 water)
[5] = Concentration 15 g/l (3 g in 200 cm3 water)

Row | Angle de spatule [1] [°] | Angle de talus [1] [°] | Densité (non tassée) [1] [kg/m3] | coulabilité ([1]; result in words, compared with the crystallised and ground products) | Pourcentage dissous [2, 3] | Pourcentage dissous [2, 4] | Pourcentage dissous [2, 5] | Structure (SMILES)
1 | 41 | 37 | 400 | aussi bonne que le produit cristallisé | 100 | 100 | > 98 | CC(=O)Nc1ccc(O)cc1 [Aggloméré, paracétamol]
2 | 74 | 56 | 280 | – | 100 | 100 | > 98 | CC(=O)Nc1ccc(O)cc1 [Broyé, paracétamol]
3 | 76 | 60 | 150 | – | 100 | 100 | > 98 | CC(=O)Nc1ccc(O)cc1 [Broyé super fin, paracétamol]
4 | 39 | 39 | 700 | – | > 95 | 85 | 83 | CC(=O)Nc1ccc(O)cc1 [Cristallisé, paracétamol]
